Measurements published in ChEMBL document CHEMBL1201862, “PubChem BioAssay data set” (2004).
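96-well plates; 48 h exposure; 5 concentrations. Endpoints by linear interpolation between flanking doses. Not reached: highest tested concentration assigned. GI50 = concentration required for 50% inhibition of growth.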 The source made the active and inactive calls. Cut-off read from the data, not from the text of the source: active = GI50 up to about 1.1 µM and inactive = higher.

Columns and labels:
Assay in all cases: NCI-60 cell line screen, 48 h
NCI-H522 = system: NCI-H522
SF-539 = system: SF-539
OVCAR-8 = system: OVCAR-8
HCT-116 = system: HCT-116
OVCAR-3 = system: OVCAR-3
COLO 205 = system: COLO 205
NCI/ADR-RES = system: NCI/ADR-RES
UO-31 = system: UO-31
U-251 = system: U-251
SK-OV-3 = system: SK-OV-3
HOP-92 = system: HOP-92
MDA-MB-231 = system: MDA-MB-231
BT-549 = system: BT-549
ACHN = system: ACHN
UACC-257 = system: UACC-257
HL-60 = system: HL-60
SNB-75 = system: SNB-75
MDA-N = system: MDA-N
CAKI-1 = system: CAKI-1
SK-MEL-2 = system: SK-MEL-2

SMILES	GI50 (NCI-H522)	GI50 (SF-539)	GI50 (OVCAR-8)	GI50 (HCT-116)	GI50 (OVCAR-3)	GI50 (COLO 205)	GI50 (NCI/ADR-RES)	GI50 (UO-31)	GI50 (U-251)	GI50 (SK-OV-3)	GI50 (HOP-92)	GI50 (MDA-MB-231)	GI50 (BT-549)	GI50 (ACHN)	GI50 (UACC-257)	GI50 (HL-60)	GI50 (SNB-75)	GI50 (MDA-N)	GI50 (CAKI-1)	GI50 (SK-MEL-2)
C=O.NNCCc1n[nH]c(=O)n1N	> 100 µM (inactive)	> 100 µM (inactive)	> 100 µM (inactive)	> 100 µM (inactive)	> 100 µM (inactive)	> 100 µM (inactive)	> 100 µM (inactive)	> 100 µM (inactive)	> 100 µM (inactive)	> 100 µM (inactive)	> 100 µM (inactive)	> 100 µM (inactive)	> 100 µM (inactive)	> 100 µM (inactive)	> 100 µM (inactive)	> 100 µM (inactive)	97.7 µM (inactive)	> 100 µM (inactive)	> 100 µM (inactive)	
CCOC(=O)/C=C/C1OC(C)(C)OC1/C=C/C(=O)OCC (stereo unspecified)	22.5 µM (inactive)	40.2 µM (inactive)	25.5 µM (inactive)	30.8 µM (inactive)		30.6 µM (inactive)	32.7 µM (inactive)	> 100 µM (inactive)	41.3 µM (inactive)	> 100 µM (inactive)	19.4 µM (inactive)	39.9 µM (inactive)	54.8 µM (inactive)	38.4 µM (inactive)	48.4 µM (inactive)		22.6 µM (inactive)	35.1 µM (inactive)	20.8 µM (inactive)	81.5 µM (inactive)
COc1ccc2c(c1)CCc1c-2n(CCN(C)C)c2ccc(OC)cc12	10 µM (inactive)		20.7 µM (inactive)	5.33 µM (inactive)	31 µM (inactive)	4.38 µM (inactive)	18.5 µM (inactive)	14 µM (inactive)	12.1 µM (inactive)	25.9 µM (inactive)	94.2 µM (inactive)	11.2 µM (inactive)	29.1 µM (inactive)	14.2 µM (inactive)	33 µM (inactive)		21.2 µM (inactive)	5.46 µM (inactive)	22.1 µM (inactive)	18.5 µM (inactive)
CCCCOC(=O)C(=O)C(CC(C(=O)Cc1ccccc1)c1ccccc1)C(=O)C=C(C)C (stereo unspecified)	> 100 µM (inactive)	> 100 µM (inactive)	> 100 µM (inactive)	> 100 µM (inactive)	> 100 µM (inactive)	> 100 µM (inactive)	> 100 µM (inactive)	> 100 µM (inactive)	> 100 µM (inactive)	> 100 µM (inactive)	> 100 µM (inactive)	> 100 µM (inactive)	> 100 µM (inactive)	> 100 µM (inactive)	> 100 µM (inactive)	50.1 µM (inactive)	> 100 µM (inactive)	> 100 µM (inactive)	> 100 µM (inactive)	> 100 µM (inactive)
CC1=NOC(=O)/C1=C/c1ccc2c(c1)OCO2	38.5 µM (inactive)	24.3 µM (inactive)	25.4 µM (inactive)	34 µM (inactive)	30.2 µM (inactive)	17.7 µM (inactive)	39.5 µM (inactive)	21.1 µM (inactive)	18.7 µM (inactive)	> 100 µM (inactive)	30.2 µM (inactive)	24.5 µM (inactive)	24 µM (inactive)	19.1 µM (inactive)	73.5 µM (inactive)		22.1 µM (inactive)	32.3 µM (inactive)	17.3 µM (inactive)	19.6 µM (inactive)
CC(=O)c1ccc2c(c1)CC1(C2)Cc2cc3c(c(C(=O)O)c2C1)CCC3 (stereo unspecified)	79.6 µM (inactive)	> 100 µM (inactive)	> 100 µM (inactive)	> 100 µM (inactive)	92.5 µM (inactive)	53.1 µM (inactive)	80.5 µM (inactive)	40 µM (inactive)	55.8 µM (inactive)	> 100 µM (inactive)	22.6 µM (inactive)	> 100 µM (inactive)	> 100 µM (inactive)	68.1 µM (inactive)	> 100 µM (inactive)	> 100 µM (inactive)	61.5 µM (inactive)	> 100 µM (inactive)	> 100 µM (inactive)	
NC(=O)C(Nc1c(Cl)cccc1Cl)c1cc2cc(Br)ccc2nc1Cl (stereo unspecified)	25.9 µM (inactive)	41.7 µM (inactive)	80.7 µM (inactive)	41.9 µM (inactive)	52.8 µM (inactive)	24.4 µM (inactive)	42.5 µM (inactive)	55 µM (inactive)		> 100 µM (inactive)	37.7 µM (inactive)	44.1 µM (inactive)	36.8 µM (inactive)	80.9 µM (inactive)	83.2 µM (inactive)	28.4 µM (inactive)	> 100 µM (inactive)	27.6 µM (inactive)	76.6 µM (inactive)	29.6 µM (inactive)
Oc1ccccc1-c1n[nH]c(-c2ccccc2O)n1	1.64 µM (inactive)	4.84 µM (inactive)	2.72 µM (inactive)	1.32 µM (inactive)	0.28 µM (active)	4.25 µM (inactive)	2.45 µM (inactive)	5.25 µM (inactive)	3.25 µM (inactive)	3.15 µM (inactive)	1.75 µM (inactive)	1.44 µM (inactive)	> 100 µM (inactive)	2.21 µM (inactive)		1.27 µM (inactive)	> 26.1 µM (inactive)	> 100 µM (inactive)	3.22 µM (inactive)	> 100 µM (inactive)
C/C(=N/Nc1nc(C)cc(O)n1)C(=O)O	> 100 µM (inactive)		> 100 µM (inactive)	> 100 µM (inactive)	> 100 µM (inactive)	> 100 µM (inactive)	> 100 µM (inactive)	> 100 µM (inactive)	> 100 µM (inactive)	> 100 µM (inactive)		> 100 µM (inactive)	> 100 µM (inactive)	> 100 µM (inactive)	> 100 µM (inactive)	> 100 µM (inactive)	> 100 µM (inactive)	> 100 µM (inactive)	> 100 µM (inactive)	> 100 µM (inactive)
O=C(NCCCCCCNC(=O)c1cccc2ccccc12)Nc1cccc2ccccc12	> 100 µM (inactive)	> 100 µM (inactive)	> 100 µM (inactive)	> 100 µM (inactive)	> 100 µM (inactive)	> 100 µM (inactive)	> 100 µM (inactive)	45.7 µM (inactive)	> 100 µM (inactive)		> 100 µM (inactive)	> 100 µM (inactive)	> 100 µM (inactive)	> 100 µM (inactive)	> 100 µM (inactive)	> 100 µM (inactive)	> 100 µM (inactive)	> 100 µM (inactive)	> 100 µM (inactive)	> 100 µM (inactive)
CN(NC(=O)c1ccco1)C1=NCCN1	> 100 µM (inactive)	> 100 µM (inactive)	> 100 µM (inactive)	> 100 µM (inactive)	> 100 µM (inactive)	> 100 µM (inactive)	> 100 µM (inactive)	> 100 µM (inactive)	> 100 µM (inactive)	> 100 µM (inactive)	> 100 µM (inactive)	> 100 µM (inactive)	> 100 µM (inactive)	> 100 µM (inactive)	> 100 µM (inactive)	> 100 µM (inactive)	> 100 µM (inactive)	> 100 µM (inactive)		> 100 µM (inactive)
O=C(CN(C(=O)OC12CC3CC(CC(C3)C1)C2)C(=O)OC12CC3CC(CC(C3)C1)C2)Oc1ccc([N+](=O)[O-])cc1	59 µM (inactive)	> 100 µM (inactive)	> 100 µM (inactive)	> 100 µM (inactive)	> 100 µM (inactive)	> 100 µM (inactive)	85.3 µM (inactive)	> 100 µM (inactive)	69.3 µM (inactive)	> 100 µM (inactive)	> 100 µM (inactive)	76.2 µM (inactive)	> 100 µM (inactive)	> 100 µM (inactive)	> 100 µM (inactive)		> 100 µM (inactive)	> 100 µM (inactive)	> 100 µM (inactive)	
C#CCOC(=O)[C@@H](C)c1ccc2cc(OC)ccc2c1	40.2 µM (inactive)	76.9 µM (inactive)	> 100 µM (inactive)	> 100 µM (inactive)		> 100 µM (inactive)	68.2 µM (inactive)	94 µM (inactive)	> 100 µM (inactive)	> 100 µM (inactive)	79.6 µM (inactive)	> 100 µM (inactive)	54.5 µM (inactive)	> 100 µM (inactive)	96.2 µM (inactive)	15.1 µM (inactive)	34.3 µM (inactive)	> 100 µM (inactive)	> 100 µM (inactive)	> 100 µM (inactive)
Oc1c(Br)cc(CN(Cc2cc(Br)c(O)c(Br)c2)C2CCCCC2)cc1Br	> 100 µM (inactive)		> 100 µM (inactive)	> 100 µM (inactive)	> 100 µM (inactive)	> 100 µM (inactive)	> 100 µM (inactive)	> 100 µM (inactive)	> 100 µM (inactive)	> 100 µM (inactive)	> 100 µM (inactive)	> 100 µM (inactive)	> 100 µM (inactive)	> 100 µM (inactive)	> 100 µM (inactive)	> 100 µM (inactive)	> 100 µM (inactive)	> 100 µM (inactive)	> 100 µM (inactive)	> 100 µM (inactive)
FC1=C2CCCCCC2SC1(F)F (stereo unspecified)	15.6 µM (inactive)		70.3 µM (inactive)	37.8 µM (inactive)	> 100 µM (inactive)	19.1 µM (inactive)	> 100 µM (inactive)	> 100 µM (inactive)		> 100 µM (inactive)	7.18 µM (inactive)	78.9 µM (inactive)	> 100 µM (inactive)	29.8 µM (inactive)	99.3 µM (inactive)	12.7 µM (inactive)	> 100 µM (inactive)	42.2 µM (inactive)	35.6 µM (inactive)	> 100 µM (inactive)
